Assays:
[1] = test system: THP-1 cells; assay: In vitro antiproliferative CCK-8 assay, THP-1; assay type: cell-based; details: Homo sapiens
Protocol: The proliferation of THP-1, MOLM-13, SEM and MV4-11 cells was tested by CCK-8 assay. Briefly, cells were seeded in 96-well plate with about 5 × 10^3 cells in each well. The cells were treated with P6 or Ara-C (0–10 µM) after 24 h of incubation. CCK-8 reagent ([…]) was added to each well after 72 h of incubation, and cells were incubated at 37°C for 4 h. The light absorbance at 450 nm was measured by using an Opsys microplate reader (Dynex Technologirs, Chantilly, VA, United States). Results are illustrated as percent of cell viability normalized to DMSO-treated control cells.

[2] = molecular target: T1, SIRT1 (Homo sapiens, UniProt Q96EB6); assay: SIRT1 enzyme inhibitory assay (fluorescence); assay type: biochemical; details: for activity at 0.01 µM / activity at 0.033 µM / activity at 0.1 µM / activity at 0.333 µM / activity at 1 µM / activity at 3.3 µM / activity at 10 µM / activity at 33 µM / activity at 100 µM: SIRT1 enzyme activity; for activity at 0.01 µM: 10 nM; for activity at 0.033 µM: 33 nM; for activity at 0.1 µM: 100 nM; for activity at 0.333 µM: 333 nM
T1 sequence (Q96EB6 1-747): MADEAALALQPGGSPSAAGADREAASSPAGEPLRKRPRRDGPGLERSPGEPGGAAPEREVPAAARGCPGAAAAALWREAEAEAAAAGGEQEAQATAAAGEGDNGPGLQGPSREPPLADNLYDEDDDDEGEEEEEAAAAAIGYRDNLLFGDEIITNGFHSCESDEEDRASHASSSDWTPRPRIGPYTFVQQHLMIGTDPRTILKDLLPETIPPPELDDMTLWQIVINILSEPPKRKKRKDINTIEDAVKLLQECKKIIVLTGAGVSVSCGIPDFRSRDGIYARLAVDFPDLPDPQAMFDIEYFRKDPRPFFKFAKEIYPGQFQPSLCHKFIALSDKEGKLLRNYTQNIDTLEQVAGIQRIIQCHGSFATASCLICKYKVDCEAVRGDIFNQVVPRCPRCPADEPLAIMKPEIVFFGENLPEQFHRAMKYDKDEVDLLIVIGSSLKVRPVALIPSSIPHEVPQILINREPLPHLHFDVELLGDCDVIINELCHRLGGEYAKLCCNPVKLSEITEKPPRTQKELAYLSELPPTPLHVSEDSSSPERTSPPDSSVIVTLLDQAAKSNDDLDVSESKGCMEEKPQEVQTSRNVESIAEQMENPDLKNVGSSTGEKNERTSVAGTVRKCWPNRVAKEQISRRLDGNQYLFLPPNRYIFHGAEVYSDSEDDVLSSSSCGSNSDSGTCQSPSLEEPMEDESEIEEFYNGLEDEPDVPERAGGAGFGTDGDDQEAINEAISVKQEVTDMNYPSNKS
Protocol: All of the enzymatic reactions were conducted at 37°C for 30 min. […] The compounds were diluted in 10% DMSO and 5 ul of the dilution was added to each reaction mixture (50 ul). The assay was performed by quantitating the amount of fluorescent product generated from the enzyme reaction. Fluorescence intensity is then analyzed at excitation wavelength of 350–360 nm and emission wavelength of 450–460 nm on a SpectraMax M5 microtiter plate reader. The IC50 values were calculated using Prism GraphPad software.

[3] = test system: THP-1, MOLM-13, SEM and MV4-11 cells; assay: Colony formation assay, MLLr leukemic cells; assay type: cell-based; details: 0.2–2.0 µM, 12 days
Protocol: (§1) THP-1, MOLM-13, SEM and MV4-11 cells were cultured with P6 (0–2.0 µM) in 2.6% methycellulose medium containing 10% FBS in a 24-well flat-bottomed plate for 12 days ([Qu et al., 2021]). The number of individual colonies consisting of more than approximately 50 cells was counted by a CX43 microscope (Olympus, Shinjuku-ku, Tokyo, Japan) with an Olympus EP50 camera (Olympus, Shinjuku-ku, Tokyo, Japan).

[4] = test system: THP-1 cells; assay: Colony formation assay, THP-1; assay type: cell-based; details: 12 days
Protocol: as §1

IC50 ([1]; 72 h, CCK-8, read-out: IC50 growth inhibition THP-1): 0.87 µM
activity at 0.01 µM ([2]; Repeat1): 98%
activity at 0.01 µM ([2]; Repeat2): 102%
activity at 0.033 µM ([2]; Repeat1): 97%
activity at 0.033 µM ([2]; Repeat2): 98%
activity at 0.1 µM ([2]; Repeat1): 100%
activity at 0.1 µM ([2]; Repeat2): 97%
activity at 0.333 µM ([2]; Repeat1): 101%
activity at 0.333 µM ([2]; Repeat2): 95%
activity at 1 µM ([2]; Repeat1): 97%
activity at 1 µM ([2]; Repeat2): 89%
activity at 3.3 µM ([2]; Repeat1): 91%
activity at 3.3 µM ([2]; Repeat2): 85%
activity at 10 µM ([2]; Repeat1): 61%
activity at 10 µM ([2]; Repeat2): 64%
activity at 33 µM ([2]; Repeat1): 42%
activity at 33 µM ([2]; Repeat2): 40%
activity at 100 µM ([2]; Repeat1): 25%
activity at 100 µM ([2]; Repeat2): 26%
IC50 ([2]; mean of two experiments): 32.6 ± 0.8 µM
SMILES: C=CC(=O)Nc1ccc(-c2cc(C(=O)N3CCN(c4ccccc4F)CC3)c3ccccc3n2)cc1 [Compound P6, N-(4-{4-[4-(2-Fluoro-phenyl)-piperazine-1-carbonyl]-quinolin-2-yl}-phenyl)-acrylamide]
inhibition at 1 µM ([1]; dose of 1 μM, mean of three experiments, read-out: THP-1 percentage inhibitory rate): 85.9 ± 3.42%
effect on number of colonies [3]: significantly reduce the number of colonies with a dose dependent manner
colony formation percentage ([4]; THP-1, 0.2 µM): 93.2
colony formation percentage ([4]; THP-1, 0.4 µM): 13.4
colony formation percentage ([4]; THP-1, 0.8 µM): 4.1

— article PMC9005971, “Discovery of 2-(4-Acrylamidophenyl)-Quinoline-4-Carboxylic Acid Derivatives as Potent SIRT3 Inhibitors” (Frontiers in Chemistry, 2022)
